Test results from US8815935B2, “Inhibitors of protein prenyltransferases” (The Regents of the University of California, priority 2008, dated 2014).
Like-named read-outs stand apart in the source and are kept apart here.

What was measured:
[1] = system: Jurkat cells; assay: Jurkat cell growth inhibition; assay type: cell-based, human
Protocol: In Table 4 in cell GI50 values for the growth inhibition of Jurkat cells are reported. The GI50 value is the concentration of a test compound needed to produce 50% growth inhibition in the cell type listed. In Table 4 the isolated yield of each synthetic step for the synthesis of corresponding compounds are also reported.
Panc-1 cells (Pancreatic cancer cell line) and Jurkat cells (T-cell leukemia) were treated with 12.5 μM of P5-H6 or 12.5 μM of mP5-H6a for 72 hours. The cell number was counted as described in Example 5.
Cell viability was determined by Cell Counting Kit-8 (CCK-8, Dojindo, Kumamoto, Japan) as described previously (31). Cell viability was calculated relative to the DMSO control. Cell cycle profile was analyzed by flow cytometry as described previously (32).

[2] = target: T1, GGTase-I (Rattus norvegicus, UniProt P53610+Q04631); assay: In vitro GGTase-I enzyme assay (IC50, kinetics); assay type: biochemical
T1 construct: purchased JENA BIOSCIENCE
Protocol: The GGTase-I assay was carried out using RhoA as a substrate protein, GGTase-I (JENA Bioscience) and [3H]geranylgeranyl pyrophosphate. Incubation was for 30 min at 37° C. GGTase-II (or RabGGTase) assay was carried out using YPTI as a substrate protein, GGTase-II (Calbiochem, San Diego, Calif.) plus REP1 (Calbiochem) and [3H]geranylgeranyl pyrophosphate. Incubation was for 30 min at 37° C. FIGS. 20D-20F show the three dimensional structure of GGTase I (D), FTsse (E) and GGTase II (F) which can be obtained from X-ray diffraction studies of protein crystals.
GGTase-I and FTase activities were determined by following the incorporation of radiolabeled isoprenoid [^3H]-geranylgeranyl or [^3H]-farnesyl into substrate proteins. FTase or GGTase-I (50 nM) were used to initiate reactions containing 0.4 μM of [^3H]-FPP or 0.5 μM of [^3H]-GGPP and 2 μM of MBP-tagged substrates (K-Ras4B for FTase; RhoA for GGTase-I) in 20 μl of buffer {50 mM Tris-HCl (pH 7.5), 10 mM MgCl2, […] and 5 mM DTT}. Inhibitors were added at the indicated concentrations. The final DMSO concentration was 2.5% for all samples.
Reactions were carried out for 10 min at 30° C. The reaction mixture was spotted onto a filter paper, treated with 10% trichloroacetic acid (TCA) followed by ethanol and acetone washing. The filter was counted using a scintillation counter. Kinetic assays in which the GGPP concentration was varied employed fixed concentrations of GGTase-I and RhoA, and reactions were carried out for 5 min. Similarly, fixed concentrations of GGTase-I and GGPP were used when the amount of RhoA was varied.

[3] = Homo sapiens, Jurkat, Tables 4, 6, 7, read-out: Jurkat cell GI50
[4] = Tables 5, 14, read-out: In vitro (enzyme assay) IC50, GGTase I
[5] = Tables 8-15, no unit printed there (Table 7 head: μM unless otherwise specified), read-out: In vitro (GGTase I IC50)
[6] = Tables 3, 5, 7, read-out: In vitro (enzyme assay) IC50, GGTase I
[7] = Tables 4, 6, 7, read-out: Jurkat cell GI50
[8] = Homo sapiens, Jurkat, Tables 8-15, no unit printed there, read-out: Jurkat GI50

| IC50 [2, 5] [µM] | IC50 [2, 6] [µM] | Compound | further results |
| --- | --- | --- | --- |
| – | > 20 | CC(C)C[C@H](NC(=O)C1=CC[C@@H](c2cccc(Cl)c2)N(S(=O)(=O)c2ccc(Br)cc2)[C@H]1c1cccc(Cl)c1)C(N)=O [P61-E08] | – |
| > 20 | > 20 | NC(=O)[C@H](Cc1ccccc1)NC(=O)C1=CC[C@@H](c2cccc(Cl)c2)N(S(=O)(=O)c2ccc(Br)cc2)C1c1cccc(Br)c1 (stereo partly drawn) [P61-E09] | – |
| – | > 20 | COC(=O)C(CC(C)C)NC(=O)C1=CCC(c2cccc(Br)c2)N(S(=O)(=O)c2ccc(Cl)cc2)C1c1cccc(Cl)c1 (stereo not drawn) [P67-A07] | – |
| – | > 20 | COC(=O)C(CC(C)C)NC(=O)C1=CCC(c2cccc(Cl)c2)N(S(=O)(=O)c2ccc(Br)cc2)C1c1cccc(Br)c1 (stereo not drawn) [P67-A04] | GI50 [1, 3]: 8 µM |

Continued, compound first:

| Compound | IC50 [2, 5] [µM] | IC50 [2, 6] [µM] | further results |
| --- | --- | --- | --- |
| Cc1ccccc1S(=O)(=O)N1[C@@H](c2ccc(Cl)cc2)C(C(=O)N[C@@H](Cc2ccccc2)C(N)=O)=C[C@H]1C(C)(C)C [P61-A06] | – | – | GI50 [1, 3]: 4.89 µM |
| O=C(NC(Cc1ccccc1)C(=O)O)C1=CCC(c2cccc(Cl)c2)N(S(=O)(=O)c2ccc(Br)cc2)C1c1cccc(Cl)c1 (stereo not drawn) [P61-G05] | – | – | IC50 [2, 4]: 0.15 µM |
| Cc1ccccc1S(=O)(=O)N1C(c2cccc(Cl)c2)C(C(=O)O)=CC[C@H]1c1ccc(Cl)cc1 (stereo partly drawn) [drawing 189] | 0.31 | – | – |
| NC(=O)[C@H](Cc1ccccc1)NC(=O)C1=CC[C@@H](c2cccc(Br)c2)N(S(=O)(=O)c2ccc(Cl)cc2)C1c1cccc(Cl)c1 (stereo partly drawn) [P61-F11] | – | – | IC50 [2, 4]: 0.3 µM |
| CCOC(=O)C1=C[C@@H](C(C)(C)C)N(S(=O)(=O)c2ccccc2C)[C@H]1c1ccc(Cl)cc1 | – | > 50 | GI50 [1, 3]: 18.5 µM |
| Cc1ccccc1S(=O)(=O)N1[C@@H](c2ccc(Cl)cc2)C(C(=O)N[C@@H](Cc2ccccc2)C(N)=O)=C[C@H]1C(C)(C)C [P61-B07] | – | – | GI50 [1, 7]: 6.1 µM |
| Cc1ccccc1S(=O)(=O)N1[C@@H](c2cccc(Cl)c2)C(C(=O)N[C@@H](CC(C)C)C(N)=O)=CC[C@H]1c1ccc(Cl)cc1 | > 50 | – | – |
| NC(=O)[C@H](Cc1ccccc1)NC(=O)C1=CC[C@@H](c2cccc(Br)c2)N(S(=O)(=O)c2ccc(Cl)cc2)C1c1cccc(Cl)c1 (stereo partly drawn) [P61-G02] | – | – | IC50 [2, 4]: 0.45 µM |
| CC(C)CC(NC(=O)C1=CCC(c2cccc(Cl)c2)N(S(=O)(=O)c2ccc(Br)cc2)C1c1cccc(Cl)c1)C(=O)O (stereo not drawn) [P61-E11] | – | – | IC50 [2, 4]: 0.5 µM |
| O=C(N[C@@H](Cc1ccccc1)C(=O)O)C1=CC[C@@H](c2cccc(Br)c2)N(S(=O)(=O)c2ccc(F)cc2)[C@H]1c1cccc(Cl)c1 [P61-H07] | – | – | IC50 [2, 4]: 0.011 µM |
| COC(=O)C(CC(C)C)NC(=O)C1=CCC(c2cccc(Br)c2)N(S(=O)(=O)c2ccc(F)cc2)C1c1cccc(Cl)c1 (stereo not drawn) [P67-H11] | – | > 20 | – |
| Cc1ccccc1S(=O)(=O)N1C(c2cccc(Cl)c2)C(C(=O)N[C@@H](CC(C)C)C(N)=O)=CC[C@H]1c1ccc(Cl)cc1 (stereo partly drawn) [P61-C05] | – | > 50 | GI50 [1, 3]: 6.1 µM |
| CC(C)CC(NC(=O)C1=CCC(c2cccc(Cl)c2)N(S(=O)(=O)c2ccc(Cl)cc2)C1c1cccc(Cl)c1)C(=O)O (stereo not drawn) [P61-H08] | – | – | IC50 [2, 4]: 0.18 µM |
| Cc1ccccc1S(=O)(=O)N1C(c2cccc(Cl)c2)C(C(N)=O)=CC[C@H]1c1ccc(Cl)cc1 (stereo partly drawn) | > 20 | – | GI50 [1, 8]: 5.36 µM |
| Cc1ccccc1S(=O)(=O)N1C(c2cccc(Cl)c2)C(C(=O)O)=CC[C@H]1c1ccc(Cl)cc1 (stereo partly drawn) [drawing 183] | 0.31 | – | GI50 [1, 8]: 20 µM |
| Cc1ccccc1S(=O)(=O)N1[C@@H](c2ccc(Cl)cc2)C(C(=O)O)=C[C@H]1C(C)CC(C)(C)C (stereo partly drawn) | 3.4 | – | – |
| COC(=O)[C@H](Cc1ccccc1)NC(=O)C1=C[C@@H](C(C)(C)C)N(S(=O)(=O)c2ccccc2C)[C@H]1c1ccc(Cl)cc1 [P61-A05] | – | – | GI50 [1, 7]: 10.5 µM |
| CC(C)(C)[C@@H]1C=C(C(=O)O)[C@H](c2ccc(Cl)c(Cl)c2)N1S(=O)(=O)c1ccccc1Br | 0.348 | – | – |
| Cc1ccccc1S(=O)(=O)N1[C@@H](c2ccc(Cl)cc2)C(C(=O)O)=C[C@H]1C(C)(C)C [drawing 143] | 0.5 | – | GI50 [1, 8]: 20 µM |
